Assay [1] concerns the target T1, Avi-KRAS G12D (1-169) GppNHp/RAF1 RBD-3xFLAG (52-151) (Homo sapiens, UniProt P01116, G12D).
T1 construct: Avi-KRAS G12D (1-169)
As to the kind of experiment: Raf1-KRAS G12D-GppNHP disruption HTRF assay (Biological Example 1). It counts as binding. As to conditions: KRAS G12D, GppNHp-loaded; class symbols. In a few lines: (§1)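 Protein mix, 1 h RT, 700 rpm; reagent mix, 1 h RT, 700 rpm; HTRF read. Buffer Tris pH 7.5/NaCl/MgCl2/BSA/Tween, 10% DMSO. Output % activity, DMSO = 100%.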
(Time-resolved FRET reads energy transfer from a long-lived donor to a nearby acceptor.)

Assay [2] addresses T2, Avi-KRAS G12R (1-169) GppNHp/RAF1 RBD-3xFLAG (52-151) (Homo sapiens, UniProt P01116, G12R).
T2 construct: Avi-KRAS G12R (1-169)
As to the kind of experiment: Raf1-KRAS G12R-GppNHP disruption HTRF assay (Biological Example 1). It counts as binding. As to conditions: KRAS G12R, GppNHp-loaded; class symbols. In a few lines:
as §1

The target of assay [3] is T3, Avi-KRAS G12V (1-169) GppNHp/RAF1 RBD-3xFLAG (52-151) (Homo sapiens, UniProt P01116, G12V).
T3 construct: Avi-KRAS G12V (1-169)
Kind of assay: Raf1-KRAS G12V-GppNHP disruption HTRF assay (Biological Example 1). It counts as binding. As to conditions: KRAS G12V, GppNHp-loaded; class symbols. An outline of the steps:
as §1

Assay [4] deals with T4, Avi-KRAS WT (1-169) GppNHp/RAF1 RBD-3xFLAG (52-151) (Homo sapiens, UniProt P01116).
T4 construct: Avi-KRAS WT (1-169)
As to the kind of experiment: Raf1-KRAS WT-GppNHP disruption HTRF assay (Biological Example 1). It counts as binding. As to conditions: KRAS WT, GppNHp-loaded; class symbols. An outline of the steps:
as §1

The next assay concerns GP2d cells (KRAS G12D). As to the kind of experiment: Cell-based pERK HTRF assay in GP2d cell (Biological Example 2). The conditions noted are these: GP2d, GP2d (KRAS G12D) cells, pERK HTRF; class symbols. In a few lines:
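Cells grown in DMEM with 10% FBS were exposed to compound for 60 min at 0.25% DMSO, using a 9-point half-log series starting at 1 μM or 100 nM. Lysates were then mixed with d2 and Eu cryptate antibodies for 4–24 h at room temperature, and pERK was read by HTRF.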

The next assay concerns SW620 cells (KRAS G12V). Kind of assay: Cell-based pERK HTRF assay in SW620 cell (Biological Example 4). As to conditions: Homo sapiens, SW-620, SW620 (KRAS G12V) cells, pERK HTRF; class symbols. An outline of the steps: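 SW620 seeded in RPMI/10% FBS, next day dosed 4 h (top 1 μM, half-log, 9 pts, 0.25% DMSO). Lysed, pERK by d2/Eu cryptate HTRF, 4–24 h RT, 615 nm read.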

This is an account of results in patent US20260042764A1, “COMPOSITIONS AND METHODS FOR INHIBITION OF KRAS” (TheRas, Inc., priority 2022, published 2026).

T1 sequence (P01116 1-169 isoform P01116-2 G12D): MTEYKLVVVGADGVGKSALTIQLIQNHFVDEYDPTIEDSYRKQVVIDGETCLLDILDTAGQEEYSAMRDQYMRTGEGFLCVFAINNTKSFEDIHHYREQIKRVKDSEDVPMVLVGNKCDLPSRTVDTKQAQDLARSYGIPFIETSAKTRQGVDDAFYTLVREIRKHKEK
T4 sequence (P01116 1-169 isoform P01116-2): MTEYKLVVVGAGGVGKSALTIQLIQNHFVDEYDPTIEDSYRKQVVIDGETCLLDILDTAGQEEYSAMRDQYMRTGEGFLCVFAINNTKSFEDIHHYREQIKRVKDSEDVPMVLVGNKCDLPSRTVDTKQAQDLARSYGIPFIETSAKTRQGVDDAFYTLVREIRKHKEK
T2 sequence (P01116 1-169 isoform P01116-2 G12R): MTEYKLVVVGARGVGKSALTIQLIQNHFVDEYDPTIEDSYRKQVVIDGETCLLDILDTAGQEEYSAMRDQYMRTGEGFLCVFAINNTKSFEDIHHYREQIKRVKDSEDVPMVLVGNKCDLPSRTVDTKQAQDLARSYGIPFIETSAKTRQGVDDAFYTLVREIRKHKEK
T3 sequence (P01116 1-169 isoform P01116-2 G12V): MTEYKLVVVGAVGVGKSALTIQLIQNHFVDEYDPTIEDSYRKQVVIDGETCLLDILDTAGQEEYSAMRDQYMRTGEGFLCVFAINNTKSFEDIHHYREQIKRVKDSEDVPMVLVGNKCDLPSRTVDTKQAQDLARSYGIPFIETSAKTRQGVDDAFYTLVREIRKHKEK

For the compound `CCN(c1nc(OC[C@@]23CCCN2C[C@H](F)C3)nc2c(F)c(-c3ccc(F)c4sc(N)c(C#N)c34)c(C(F)(F)F)cc12)[C@H]1C[C@@H](COC)N(C(=O)C2CC2)C1` (atropisomer, axis not shown) [Compound 650], the half-inhibitory concentration (IC50) in assay [1] was 100 to 1000 nM; in assay [2], 100 to 1000 nM; in assay [3], 100 to 1000 nM; in assay [4], 100 to 1000 nM; in the assay with GP2d cells (KRAS G12D), < 100 nM; in the assay on SW620 cells (KRAS G12V), < 100 nM.
Turning to `CCN(c1nc(OC[C@@]23CCCN2C[C@H](F)C3)nc2c(F)c(-c3ccc(F)c4sc(N)c(C#N)c34)c(C(F)(F)F)cc12)[C@H]1CCN(C(=O)N2C[C@H]3C[C@@H]2CO3)C1` (atropisomer, axis not shown) [Compound 653], the IC50 (in assay [1]; in assay [2]; in assay [3]; in assay [4]; with GP2d cells (KRAS G12D); with SW620 cells (KRAS G12V)) was < 100 nM in each case.
Turning to `CCN(c1nc(OC[C@@]23CCCN2C[C@H](F)C3)nc2c(F)c(-c3ccc(F)c4sc(N)c(C#N)c34)c(C(F)(F)F)cc12)[C@H]1CCN(C(=O)N2C[C@@H]3C[C@H]2CO3)C1` (atropisomer, axis not shown) [Compound 654], the half-inhibitory concentration (IC50) (in assay [1]; in assay [2]; in assay [3]; in assay [4]; in the assay on GP2d cells (KRAS G12D); in the assay on SW620 cells (KRAS G12V)) was < 100 nM in each case.
Turning to `[2H]C([2H])([2H])OC(=O)N1CC[C@H](N(CC)c2nc(OC[C@@]34CCCN3C[C@H](F)C4)nc3c(F)c(-c4ccc(F)c5sc(N)c(C#N)c45)c(C(F)(F)F)cc23)C1` (atropisomer, axis not shown) [Compound 659], the IC50 (in assay [1]; in assay [2]; in assay [3]; in assay [4]; in the assay with GP2d cells (KRAS G12D); in the assay with SW620 cells (KRAS G12V)) was < 100 nM each time.
As to `CCN(c1nc(OC[C@@]23CCCN2C[C@H](F)C3)nc2c(F)c(-c3ccc(F)c4sc(N)c(C#N)c34)c(C(F)(F)F)cc12)[C@H]1C[C@H]2CCOC(=O)N2C1` (atropisomer, axis not shown) [Compound 664], the IC50 (in assay [1]; in assay [2]; in assay [3]; in assay [4]; in the assay on GP2d cells (KRAS G12D); in the assay with SW620 cells (KRAS G12V)) was < 100 nM each time.
Take `CCN(c1nc(OC[C@@]23CCCN2C[C@H](F)C3)nc2c(F)c(-c3ccc(F)c4sc(N)c(C#N)c34)c(C(F)(F)F)cc12)[C@H]1C[C@@H]2CCOC(=O)N2C1` (atropisomer, axis not shown) [Compound 665]: the half-maximal inhibitory concentration (IC50) in assay [1] was 100 to 1000 nM; in assay [2], 100 to 1000 nM; in assay [3], 100 to 1000 nM; in assay [4], 100 to 1000 nM; with GP2d cells (KRAS G12D), < 100 nM; with SW620 cells (KRAS G12V), < 100 nM.
In the case of `CCN(c1nc(OC[C@@]23CCCN2C[C@H](F)C3)nc2c(F)c(-c3ccc(F)c4sc(N)c(C#N)c34)c(C(F)(F)F)cc12)[C@H]1C[C@H]2CCN(C)C(=O)N2C1` (atropisomer, axis not shown) [Compound 666], the IC50 (in assay [1]; in assay [2]; in assay [3]; in assay [4]; in the assay with GP2d cells (KRAS G12D); in the assay on SW620 cells (KRAS G12V)) was < 100 nM throughout.
With `CCN(c1nc(OC[C@@]23CCCN2C[C@H](F)C3)nc2c(F)c(-c3ccc(F)c4sc(N)c(C#N)c34)c(C(F)(F)F)cc12)[C@H]1CCN(C(=O)C=C(C)C)C1` (atropisomer, axis not shown) [Compound 675], the half-maximal inhibitory concentration (IC50) (in assay [1]; in assay [2]; in assay [3]; in assay [4]; with GP2d cells (KRAS G12D); in the assay with SW620 cells (KRAS G12V)) was < 100 nM each time.
With `C=C(F)C(=O)N1CC[C@H](N(CC)c2nc(OC[C@@]34CCCN3C[C@H](F)C4)nc3c(F)c(-c4ccc(F)c5sc(N)c(C#N)c45)c(C(F)(F)F)cc23)C1` (atropisomer, axis not shown) [Compound 676], the IC50 (in assay [1]; in assay [2]; in assay [3]; in assay [4]; in the assay on GP2d cells (KRAS G12D); in the assay on SW620 cells (KRAS G12V)) was < 100 nM throughout.
On to `C/C=C\C(=O)N1CC[C@H](N(CC)c2nc(OC[C@@]34CCCN3C[C@H](F)C4)nc3c(F)c(-c4ccc(F)c5sc(N)c(C#N)c45)c(C(F)(F)F)cc23)C1` (atropisomer, axis not shown) [Compound 677], for which the IC50 (in assay [1]; in assay [2]; in assay [3]; in assay [4]; with GP2d cells (KRAS G12D); with SW620 cells (KRAS G12V)) was < 100 nM in each case.
On to `CC#CC(=O)N1CC[C@H](N(CC)c2nc(OC[C@@]34CCCN3C[C@H](F)C4)nc3c(F)c(-c4ccc(F)c5sc(N)c(C#N)c45)c(C(F)(F)F)cc23)C1` (atropisomer, axis not shown) [Compound 679], for which the half-maximal inhibitory concentration (IC50) (in assay [1]; in assay [2]; in assay [3]; in assay [4]; in the assay with GP2d cells (KRAS G12D); in the assay on SW620 cells (KRAS G12V)) was < 100 nM in each case.
As for `CCN(c1nc(OC[C@@]23CCCN2C[C@H](F)C3)nc2c(F)c(-c3ccc(F)c4sc(N)c(C#N)c34)c(C(F)(F)F)cc12)[C@H]1CCN(C(=O)O[C@H]2CCOC2)C1` (atropisomer, axis not shown) [Compound 682], the half-maximal inhibitory concentration (IC50) (in assay [1]; in assay [2]; in assay [3]; in assay [4]; with GP2d cells (KRAS G12D); in the assay with SW620 cells (KRAS G12V)) was < 100 nM throughout.
Turning to `CCN(c1nc(OC[C@@]23CCCN2C[C@H](F)C3)nc2c(F)c(-c3ccc(F)c4sc(N)c(C#N)c34)c(C(F)(F)F)cc12)[C@H]1CCN(C(=O)OC2CCOCC2)C1` (atropisomer, axis not shown) [Compound 684], the IC50 (in assay [1]; in assay [2]; in assay [3]; in assay [4]; in the assay with GP2d cells (KRAS G12D); with SW620 cells (KRAS G12V)) was < 100 nM in each case.
`CCOC(=O)N1CC[C@H](N(CC)c2nc(OC[C@@]34CCCN3C[C@H](F)C4)nc3c(F)c(-c4ccc(F)c5sc(N)c(C#N)c45)c(C(F)(F)F)cc23)C1` (atropisomer, axis not shown) [Compound 686]: the half-inhibitory concentration (IC50) in assay [1] was < 100 nM; in assay [2], < 100 nM; in assay [3], < 100 nM; in assay [4], 100 to 1000 nM; in the assay on GP2d cells (KRAS G12D) it was < 100 nM; in the assay on SW620 cells (KRAS G12V), < 100 nM.
For `CCN(c1nc(OC[C@@]23CCCN2C[C@H](F)C3)nc2c(F)c(-c3ccc(F)c4sc(N)c(C#N)c34)c(C(F)(F)F)cc12)[C@H]1CCN(C(=O)OCCF)C1` (atropisomer, axis not shown) [Compound 687], the IC50 (in assay [1]; in assay [2]; in assay [3]; in assay [4]; in the assay on GP2d cells (KRAS G12D); in the assay with SW620 cells (KRAS G12V)) was < 100 nM in each case.
Regarding `CCN(c1nc(OC[C@@]23CCCN2C[C@H](F)C3)nc2c(F)c(-c3ccc(F)c4sc(N)c(C#N)c34)c(C(F)(F)F)cc12)[C@H]1CCN(C(=O)OC)[C@@H]1C` (atropisomer, axis not shown) [Compound 688], the 50% inhibitory concentration (IC50) is < 100 nM in assay [1]; < 100 nM in assay [2]; 100 to 1000 nM in assay [3]; 100 to 1000 nM in assay [4]; < 100 nM in the assay with GP2d cells (KRAS G12D); < 100 nM in the assay on SW620 cells (KRAS G12V).
Consider `CCN(c1nc(OC[C@@]23CCCN2C[C@H](F)C3)nc2c(F)c(-c3ccc(F)c4sc(N)c(C#N)c34)c(C(F)(F)F)cc12)[C@H]1CCN(C(=O)[C@@H]2C[C@H]2C)C1` (atropisomer, axis not shown) [Compound 690], for which the half-inhibitory concentration (IC50) (in assay [1]; in assay [2]; in assay [3]; in assay [4]; in the assay with GP2d cells (KRAS G12D); in the assay with SW620 cells (KRAS G12V)) was < 100 nM throughout.
For `CCN(c1nc(OC[C@@]23CCCN2C[C@H](F)C3)nc2c(F)c(-c3ccc(F)c4sc(N)c(C#N)c34)c(C(F)(F)F)cc12)[C@H]1CCN(C(=O)[C@@H]2C[C@@H]2F)C1` (atropisomer, axis not shown) [Compound 691], the IC50 (in assay [1]; in assay [2]; in assay [3]; in assay [4]; in the assay with GP2d cells (KRAS G12D); with SW620 cells (KRAS G12V)) was < 100 nM each time.

What is called IC50 is the concentration that gives 50% inhibition.
